From ChEMBL document CHEMBL4118187, “In vitro activity of salicylamide derivatives against vancomycin-resistant enterococci” (Bioorg Med Chem Lett, 2018)
≈ marks a conversion by molar mass, not a printed value.

Assays:
[1] = test system: Enterococcus faecalis; assay: Antibacterial activity against vancomycin-resistant Enterococcus faecalis 342B after 24 hrs; assay type: functional
[2] = test system: Enterococcus faecalis; assay: Antibacterial activity against vancomycin-susceptible Enterococcus faecalis ATCC 29212 after 24 hrs; assay type: functional; settings: ATCC 29212, 24 h
[3] = test system: Enterococcus faecalis; assay: Antibacterial activity against vancomycin-resistant Enterococcus faecalis 725B after 24 hrs; assay type: functional
[4] = test system: Enterococcus faecalis; assay: Antibacterial activity against vancomycin-resistant Enterococcus faecalis 368 after 24 hrs; assay type: functional; settings: Enterococcus faecalis, 368, 24 h
[5] = Cytotoxicity against human THP1 cells after 24 hrs by LDH release assay; assay type: cell-based; settings: THP-1 cells, read-out: LD50

| SMILES | MBC [1] | MIC [1] | MBC [2] | MIC [2] | MBC [3] | MIC [3] | MBC [4] | MIC [4] | CC50 at 24 h [5] |
| --- | --- | --- | --- | --- | --- | --- | --- | --- | --- |
| CC(C)[C@H](NC(=O)OCc1ccccc1)C(=O)Oc1ccc(Cl)cc1C(=O)Nc1ccc(C(F)(F)F)cc1 | > 466 µM | > 466 µM | > 466 µM | > 466 µM | > 466 µM | > 466 µM | > 466 µM | > 466 µM |  |
| COc1ccc(NC(=O)c2cc(Cl)ccc2OC(=O)[C@@H](NC(=O)OCc2ccccc2)C(C)C)cc1 | > 499 µM | > 499 µM | > 499 µM | > 499 µM | > 499 µM | > 499 µM | > 499 µM | > 499 µM |  |
| O=C(Nc1ccc(Cl)cc1)c1cc([N+](=O)[O-])ccc1O | > 874 µM | > 874 µM | > 874 µM | > 874 µM | > 874 µM | > 874 µM | > 874 µM | > 874 µM | > 40 µM |
| CC(C)[C@H](NC(=O)OCc1ccccc1)C(=O)Oc1cc(Cl)ccc1C(=O)Nc1ccc(Cl)c(Cl)c1 | > 465 µM | > 465 µM | > 465 µM | > 465 µM | > 465 µM | > 465 µM | > 465 µM | > 465 µM |  |
| CN[C@H](CC(C)C)C(=O)N[C@H]1C(=O)N[C@@H](CC(N)=O)C(=O)N[C@H]2C(=O)N[C@H]3C(=O)N[C@H](C(=O)N[C@H](C(=O)O)c4cc(O)cc(O)c4-c4cc3ccc4O)[C@H](O)c3ccc(c(Cl)c3)Oc3cc2cc(c3O[C@@H]2O[C@H](CO)[C@@H](O)[C@H](O)[C@H]2O[C@H]2C[C@](C)(N)[C@H](O)[C@H](C)O2)Oc2ccc(cc2Cl)[C@H]1O [VANCOMYCIN] |  | 353 µM (≈ 512 µg/mL) |  |  |  | 706 µM (≈ 1020 µg/mL) |  | 353 µM (≈ 512 µg/mL) |  |
| Cc1ccc(NC(=O)[C@@H](NC(=O)c2cc(Cl)ccc2O)C(C)C)cc1 | > 709 µM | > 709 µM | > 709 µM | > 709 µM | > 709 µM | > 709 µM | > 709 µM | > 709 µM |  |
| CC(C)[C@H](NC(=O)c1ccc(Cl)cc1O)C(=O)Nc1ccc(Br)cc1 | > 601 µM | > 601 µM | > 601 µM | > 601 µM | > 601 µM | > 601 µM | > 601 µM | > 601 µM |  |
| CC1(C)S[C@@H]2[C@H](NC(=O)[C@H](N)c3ccccc3)C(=O)N2[C@H]1C(=O)O [AMPICILLIN] |  |  |  |  | 5.72 µM (≈ 2 µg/mL) | 5.72 µM (≈ 2 µg/mL) |  |  |  |
